Reference: PMC3005334 (Cell, 2010)

What was measured:
Erg3 = molecular target: T1, Erg3 (Saccharomyces cerevisiae, UniProt P32353); type: binding; conditions: in vivo bound, LC-MS; known substrate
T1 sequence (P32353 1-365): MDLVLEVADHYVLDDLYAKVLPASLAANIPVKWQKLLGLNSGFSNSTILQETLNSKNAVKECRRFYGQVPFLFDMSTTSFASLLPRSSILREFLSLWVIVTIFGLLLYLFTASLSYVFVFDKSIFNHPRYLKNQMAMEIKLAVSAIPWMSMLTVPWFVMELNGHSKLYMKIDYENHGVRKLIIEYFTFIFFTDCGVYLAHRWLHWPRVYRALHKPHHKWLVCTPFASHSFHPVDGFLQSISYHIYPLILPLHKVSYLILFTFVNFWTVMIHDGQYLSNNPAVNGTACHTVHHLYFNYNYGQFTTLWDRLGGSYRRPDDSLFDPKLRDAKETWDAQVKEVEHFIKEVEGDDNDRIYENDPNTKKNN

[1] = system: 21 ergosterol biosynthetic proteins (Erg proteins); conditions: of 21 Erg enzymes, above the control
Erg1 = molecular target: T2, Erg1 (Saccharomyces cerevisiae, UniProt P32476); type: binding; conditions: in vivo bound, LC-MS
T2 sequence (P32476 1-496): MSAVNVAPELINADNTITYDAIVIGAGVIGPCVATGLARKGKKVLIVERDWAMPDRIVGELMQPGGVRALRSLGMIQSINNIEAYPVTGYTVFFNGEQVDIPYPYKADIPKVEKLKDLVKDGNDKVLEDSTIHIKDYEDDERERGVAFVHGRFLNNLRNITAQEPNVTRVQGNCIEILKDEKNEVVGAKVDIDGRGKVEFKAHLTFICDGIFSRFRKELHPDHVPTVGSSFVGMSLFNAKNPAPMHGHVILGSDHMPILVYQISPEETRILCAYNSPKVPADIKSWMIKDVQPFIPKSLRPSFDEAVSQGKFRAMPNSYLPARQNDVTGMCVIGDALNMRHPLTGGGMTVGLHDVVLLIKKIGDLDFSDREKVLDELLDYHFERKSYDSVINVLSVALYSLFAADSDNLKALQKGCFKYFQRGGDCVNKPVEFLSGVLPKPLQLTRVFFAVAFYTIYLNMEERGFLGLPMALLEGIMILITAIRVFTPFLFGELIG

ypk1Δ cells [2] = assay: Growth of kinase deletion strain in the presence of ergosterol inhibitor; type: cell-based, Saccharomyces cerevisiae; conditions: different concentrations of inhibitor, cell density
ypk1Δ cells [3] = conditions: ref Gupta et al., 2003; Hillenmeyer et al., 2008; cited from earlier work

Structure (SMILES) | number of Erg proteins the metabolite co-purified with [1] | association with Erg1 among the 21 Erg proteins (Erg1) | further results
C=C(CC[C@@H](C)[C@H]1CC[C@H]2C3=CC[C@H]4C[C@@H](O)CC[C@]4(C)[C@H]3CC[C@]12C)C(C)C [episterol] | 3 | – | binding to Erg3 (Erg3): bound
CC(C)=CCC/C(C)=C/CC/C(C)=C/CC/C=C(\C)CC/C=C(\C)CC[C@@H]1OC1(C)C [(S)-2,3-epoxysqualene] | – | specifically associated only with Erg1 | –
C[C@@H]1[C@H](O)[C@@H](C)/C=C/C=C/CC/C=C/C=C/C=C/C=C/C(O[C@H]2O[C@H](C)[C@@H](O)[C@H](N)[C@@H]2O)CC2O[C@](O)(CC(O)C(O)CCC(O)CC(O)CC(O)CC(=O)O[C@H]1C)CC(O)C2C(=O)O (stereo partly shown) [nystatin] | – | – | growth of ypk1Δ cells (ypk1Δ cells [2]): sensitive; sensitivity of yeast strains lacking Ypk1 (ypk1Δ cells [3]): sensitive
CC(C)=CCC[C@@H](C)[C@H]1CC[C@H]2C3=C(CC[C@]12C)[C@@]1(C)CCC(=O)C[C@@H]1CC3 [5α-cholesta-8,24-dien-3-one] | – | specifically associated only with Erg1 | –
CC(C)=CCC[C@@H](C)[C@H]1CC[C@@]2(C)C3=C(CC[C@]12C)[C@@]1(C)CC[C@H](O)C(C)(C)[C@@H]1CC3 [lanosterol] | 5 | – | –
